Measurements: US7005537B2, “Production of esters” (ExxonMobil Chemical Patents Inc., priority 1999, dated 2006)

What was measured:
Type in all cases: physicochemical
[1] = Fluid solvent properties
Description: One of ordinary skill in the art can readily determine the flash point of a fluid or blend (e.g., ASTM D92-78).

[2] = Reid Vapor Pressure
Description: The invention also includes producing a gasoline fuel containing an ester for use in internal combustion engines, wherein the ester has a Reid Vapor Pressure less than about 4 pounds per square inch. An important factor in determining a compound's ozone formation potential includes the compound's vapor pressure. Compounds with relatively high vapor pressures are more likely to volatilize into the atmosphere from open sources. Potential open sources include, for example, sources from production, distribution, storage and/or combustion of fuels containing oxygenates. The C7 to C14 esters according to the invention are expected to have low vapor pressures in comparison to MTBE and some other oxygenates. Preferably, the esters have a RVP less than about 3.5 psi. More preferably, less than about 3.0 or 2.0 psi. For example, Methyl Pivalate has a Reid Vapor Pressure of about 1.6 psi.

[3] = Stability of solvent to acid catalyst (pTSA) in acrylic solvent system, GC; conditions: for Wt. % of Solvent At One Week Decomposition Period / Wt. % of Solvent At Three Week Decomposition Period: 0.5 wt % pTSA, 50° C., nitrogen, 100 at start of test
Description: Acrylic solvent systems were prepared to test the stability of methyl pivalate to acid catalysts, which are commonly present in coating compositions. The formulations contained 29.9 wt % MP, 28.7 wt % pentyl acetate, 20.2 wt % n-butyl acetate, 16.1 wt % n-butyl alcohol, 3.6 wt % methyl ethyl ketone, 1.5 wt % isopropyl alcohol. 2 wt % toluene as an internal standard. The latter materials were purchased from Aldrich Chemical Co.
Para toluene sulfonic acid (pTSA) was added to the above formulation (again, pTSA was purchased from Aldrich Chemical Co.), in the amount of 0.5 wt %. The solutions were sealed and placed in an oven at 50° C. under a nitrogen atmosphere. Samples were withdrawn at intervals for testing. The content of methyl pivalate was monitored over time by gas chromatographic analysis using an HP 5890 gas chromatograph. In a parallel experiment an equal amount of tert butyl acetate was used instead of methyl pivalate. The results are shown below in Table 7 (all percentages are by weight).

SMILES	Hansen Solubility Parameter H-Bonding [1]	Hansen Solubility Parameter Nonpolar [1]	Hansen Solubility Parameter Polar [1]	Hansen Solubility Parameter Total [1]	Surface Tension [1]	Reid Vapor Pressure [2]	Flash Point [1]	stability to acid catalysts (in words) [3]	Wt. % of Solvent At One Week Decomposition Period [3]	Wt. % of Solvent At Three Week Decomposition Period [3]
CC(C)=O [Acetone]	3.4	7.6	5.1	9.2	22.3	–	–	–	–	–
COC(=O)C(C)(C)C [Methyl Pivalate, methyl pivalate (methyl 1,1,1-trimethyl acetate)]	–	–	–	–	23.8	about 1.6 psi	7 °C	more stable to acid catalysts than is t-butyl acetate	88.0 Wt. %	65.1 Wt. %
CC(=O)OC(C)(C)C [t-butyl acetate, tertiary butyl acetate]	–	–	–	–	–	–	–	not inert with respect to acids	65.9 Wt. %	24.1 Wt. %
